Data reported in patent US9695197B2, “Glycosidase inhibitors and uses thereof” (Alectos Therapeutics Inc., priority 2012, dated 2017).

Experiments:
[1] = target: human O-GlcNAcase (Homo sapiens (Human), UniProt O60502); assay: Fluorescence-based assay for KI values for inhibition of O-GlcNAcase activity; format: biochemical; settings: purified human O-GlcNAcase 0.7 nM, 2 mM 4-methylumbelliferyl GlcNAc substrate, pH 7.0, Cheng-Prusoff; read-out: Fluorescence-based hOGA Ki
Procedure: Assay for Determination of KI Values for Inhibition of O-GlcNAcase Activity
Experimental Procedure for Kinetic Analyses:
Enzymatic reactions were carried out in a reaction containing 50 mM NaH2PO4, 100 mM NaCl and 0.1% BSA (pH 7.0) using 2 mM 4-Methylumbelliferyl N-acetyl-β-D-glucosaminide dihydrate (Sigma M2133) dissolved in ddH2O, as a substrate. The amount of purified human O-GlcNAcase enzyme used in the reaction was 0.7 nM. Test compound of varying concentrations was added to the enzyme prior to initiation of the reaction. The reaction was performed at room temperature in a 96-well plate and was initiated with the addition of substrate. […] The slope of product production was determined for each concentration of compound tested and plotted, using standard curve fitting algorithms for sigmoidal dose response curves. The values for a four parameter logistic curve fit of the data were determined.

[2] = Apparent permeability (Papp), bi-directional transport in LLC-PK1 cells; format: in vitro ADME; settings: pig, 1 μM test compound, t=3 h, average of A to B and B to A
Procedure: Assay for Determination of Apparent Permeability (Papp)
Bi-directional transport was evaluated in LLC-PK1 cells in order to determine apparent permeability (Papp). LLC-PK1 cells can form a tight monolayer and therefore can be used to assess vectorial transport of compounds from basolateral to apical (B→A) and from apical to basolateral (A→B).
To determine Papp, LLC-PK1 cells were cultured in 96-well transwell culture plates (Millipore). Solutions containing the test compounds (1 μM) were prepared in Hank's Balanced Salt Solution with 10 mM HEPES. Substrate solution (150 μL) was added to either the apical (A) or the basolateral (B) compartment of the culture plate, and buffer (150 μL) was added to the compartment opposite to that containing the compound. At t=3 h, 50 μL samples were removed from both sides of monolayers dosed with test compound and placed in 96 well plates, scintillant (200 μL) or internal standard (100 μL labetolol 1 μM) was added to the samples and concentration was determined by liquid scintillation counting in a MicroBeta Wallac Trilux scintillation counter (Perkin Elmer Life Sciences, Boston, Mass.) or by LCMS/MS (Applied Biosystems SCIEX API 5000 triple quadruple mass spectrometer). […]
The apparent permeability, Papp, was calculated by the following formula for samples taken at t=3 h:
[formula] […] Papp was expressed as 10^−6 cm/s. […]

[3] = target: O-GlcNAcase (Rattus norvegicus (Rat), UniProt Q8VIJ5); assay: Cell-based ELISA for cellular activity of compounds that inhibit O-GlcNAcase (O-GlcNAcylated protein detected with RL-2 antibody); settings: rat PC-12 cells, treated 24 h, O-GlcNAcylated protein by RL-2 ELISA
Chain of O-GlcNAcase (Q8VIJ5 whole entry): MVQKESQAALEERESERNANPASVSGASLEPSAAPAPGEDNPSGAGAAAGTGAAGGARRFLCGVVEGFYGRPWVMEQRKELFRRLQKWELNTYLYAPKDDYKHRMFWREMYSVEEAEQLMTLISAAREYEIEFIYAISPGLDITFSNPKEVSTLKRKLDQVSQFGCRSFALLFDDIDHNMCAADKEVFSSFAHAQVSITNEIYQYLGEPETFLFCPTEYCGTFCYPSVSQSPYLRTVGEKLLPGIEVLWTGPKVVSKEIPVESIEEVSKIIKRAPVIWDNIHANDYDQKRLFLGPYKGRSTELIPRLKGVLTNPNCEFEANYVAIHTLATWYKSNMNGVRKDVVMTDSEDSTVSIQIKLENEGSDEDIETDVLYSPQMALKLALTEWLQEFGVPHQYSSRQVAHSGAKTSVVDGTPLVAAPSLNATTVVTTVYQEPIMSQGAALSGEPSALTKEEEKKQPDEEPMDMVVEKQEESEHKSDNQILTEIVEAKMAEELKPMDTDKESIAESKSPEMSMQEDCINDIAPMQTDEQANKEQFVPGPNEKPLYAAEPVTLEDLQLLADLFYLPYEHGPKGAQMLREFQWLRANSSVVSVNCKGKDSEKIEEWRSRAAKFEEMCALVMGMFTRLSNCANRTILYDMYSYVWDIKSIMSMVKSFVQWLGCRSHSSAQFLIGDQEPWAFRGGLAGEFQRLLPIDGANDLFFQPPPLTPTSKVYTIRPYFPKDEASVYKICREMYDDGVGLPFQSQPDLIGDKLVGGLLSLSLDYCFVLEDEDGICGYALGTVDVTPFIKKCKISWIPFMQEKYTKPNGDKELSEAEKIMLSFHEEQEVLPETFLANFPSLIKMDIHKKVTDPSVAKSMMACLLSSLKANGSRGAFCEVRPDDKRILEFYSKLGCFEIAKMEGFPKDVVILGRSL
Excerpt: Assay for Determination of Cellular Activity for Compounds that Inhibit O-GlcNAcase Activity
Inhibition of O-GlcNAcase, which removes O-GlcNAc from cellular proteins, results in an increase in the level of O-GlcNAcylated protein in cells. An increase in 0-GlcNAcylated protein can be measured by an antibody, such as RL-2, that binds to 0-GlcNAcylated protein. The amount of O-GlcNAcylated protein:RL2 antibody interaction can be measured by enzyme linked immunosorbant assay (ELISA) procedures.
A variety of tissue culture cell lines, expressing endogenous levels of O-GlcNAcase, can be utilized; examples include rat PC-12, and human U-87, or SK-N-SH cells. In this assay, rat PC-12 cells are plated in 96-well plates with approximately 10,000 cells/well. Compounds to be tested are dissolved in DMSO, either 2 or 10 mM stock solution, and then diluted with DMSO and water in a two-step process using a Tecan workstation. […] To prepare a cell lysate, the media from compound treated cells is removed, the cells are washed once with phosphate buffered saline (PBS) and then lysed for 5 minutes at room temperature in 50 μL of Phosphosafe reagent (Novagen Inc, Madison, Wis.) with protease inhibitors and PMSF. The cell lysate is collected and transferred to a new plate, which is then either coated to assay plates directly or frozen −80° C. until used in the ELISA procedure. If desired, the total protein concentration of samples is determined using 20 μL of the sample using the BCA method.
The ELISA portion of the assay is performed in a black Maxisorp 96-well plate that is coated overnight at 4° C. with 100 μL/well of the cell lysate (1:10 dilution of the lysate with PBS containing protease inhibitors, phosphatase inhibitors, and PMSF). The following day the wells are washed 3 times with 300 μL/well of Wash buffer (Tris-buffered saline with 0.1% Tween 20). The wells are blocked with 100 μL/well Blocking buffer (Tris buffered saline w/0.05% Tween 20 and 2.5% Bovine serum albumin). Each well is then washed two times with 300 μL/well of wash buffer. The anti O-GlcNAc antibody RL-2 (Abcam, Cambridge, Mass.), diluted 1:1000 in blocking buffer, is added at 100 μL/well. The plate is sealed and incubated at 37° C. for 2 h with gentle shaking. The wells are then washed 3-times with 300 μL/well wash buffer. […] The detection reaction is incubated for 15 minutes at room temperature and then read with excitation at 530 nm and emission at 590 nm.
The amount of O-GlcNAcylated protein, as detected by the ELISA assay, is plotted for each concentration of test compound using standard curve fitting algorithms for sigmoidal dose response curves. The values for a four parameter logistic curve fit of the data are determined, with the inflection point of the curve being the potency value for the test compound.

Chain of human O-GlcNAcase (O60502 whole entry): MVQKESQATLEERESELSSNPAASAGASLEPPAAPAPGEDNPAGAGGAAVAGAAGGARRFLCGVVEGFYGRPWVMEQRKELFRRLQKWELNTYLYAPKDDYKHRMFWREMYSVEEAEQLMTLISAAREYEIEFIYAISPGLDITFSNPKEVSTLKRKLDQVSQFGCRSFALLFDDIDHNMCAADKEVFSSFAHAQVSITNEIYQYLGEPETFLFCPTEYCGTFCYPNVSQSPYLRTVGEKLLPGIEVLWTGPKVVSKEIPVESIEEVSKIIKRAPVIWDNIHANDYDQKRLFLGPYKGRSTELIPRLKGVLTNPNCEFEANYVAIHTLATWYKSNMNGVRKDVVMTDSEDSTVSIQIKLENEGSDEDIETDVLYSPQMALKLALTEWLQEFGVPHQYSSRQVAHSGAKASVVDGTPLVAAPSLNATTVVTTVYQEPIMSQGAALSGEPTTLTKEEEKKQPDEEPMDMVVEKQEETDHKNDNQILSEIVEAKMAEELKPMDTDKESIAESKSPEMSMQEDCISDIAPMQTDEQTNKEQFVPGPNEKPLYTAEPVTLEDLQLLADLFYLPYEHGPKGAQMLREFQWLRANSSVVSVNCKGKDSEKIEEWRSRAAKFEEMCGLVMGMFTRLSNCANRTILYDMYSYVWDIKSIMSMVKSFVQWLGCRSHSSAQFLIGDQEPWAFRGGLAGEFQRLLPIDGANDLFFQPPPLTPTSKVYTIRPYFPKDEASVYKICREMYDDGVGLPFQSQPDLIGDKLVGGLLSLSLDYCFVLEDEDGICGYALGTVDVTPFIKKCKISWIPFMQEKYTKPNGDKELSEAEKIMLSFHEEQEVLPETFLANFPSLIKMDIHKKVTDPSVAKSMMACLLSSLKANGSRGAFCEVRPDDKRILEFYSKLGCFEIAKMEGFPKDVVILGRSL

Row | Compound | Ki [1] | Papp at 3 h, 1 μM [2] | EC50 [3]
1 | CCNC1=N[C@@H]2[C@@H](O)[C@H](O)[C@@H](CO)S[C@@H]2O1 [Example 1, (3aS,5R,6S,7R,7aR)-2-(ethylamino)-5-(hydroxymethyl)-5,6,7,7a-tetrahydro 3aH-thiopyrano[3,2-d]oxazole-6,7-diol] | 3 nM | – | –
2 | CCNC1=N[C@H]2[C@@H](S1)S[C@H](CO)[C@@H](O)[C@@H]2O [Example 2, (3aR,5R,6S,7R,7aR)-2-(ethylamino)-5-(hydroxymethyl)-5,6,7,7a-tetrahydro-3aH-thiopyrano[3,2-d]thiazole-6,7-diol] | 3 nM | 3.7 ×10⁻⁶ cm/s | 139 nM
3 | CCCNC1=N[C@H]2[C@@H](S1)S[C@H](CO)[C@@H](O)[C@@H]2O [Example 3, (3aR,5R,6S,7R,7aR)-5-(hydroxymethyl)-2-(propylamino)-5,6,7,7a-tetrahydro-3aH-thiopyrano[3,2-d]thiazole-6,7-diol] | 1.4 nM | – | 29 nM
4 | CNC1=N[C@H]2[C@@H](S1)S[C@H](CO)[C@@H](O)[C@@H]2O [Example 4, (3aR,5R,6S,7R,7aR)-5-(hydroxymethyl)-2-(methylamino)-5,6,7,7a-tetrahydro-3aH-thiopyrano[3,2-d]thiazole-6,7-diol] | 0.11 nM | – | 3 nM
5 | CCNC1=N[C@H]2[C@@H](S1)S[C@H](C(F)F)[C@@H](O)[C@@H]2O [Example 5, (3aR,5S,6S,7R,7aR)-5-(difluoromethyl)-2-(ethylamino)-5,6,7,7a-tetrahydro-3aH-thiopyrano[3,2-d]thiazole-6,7-diol] | 22 nM | – | 349 nM
6 | CCNC1=N[C@@H]2[C@@H](O)[C@H](O)[C@@H](CO)O[C@@H]2S1 [N/A, (3 aR,5R,6S,7R,7aR)-2-(ethylamino)-5-(hydroxymethyl)-5,6,7,7a-tetrahydro-3aH-pyrano[3,2-d]thiazole-6,7-diol, reference compound] | – | < 1 ×10⁻⁶ cm/s | –
